Target: T1, human capsaicin receptor (Homo sapiens, UniProt Q8NER1)
T1 construct: transfected with the pBK-CMV expression construct encoding the full length human capsaicin receptor; expressed in transfected cells; host or cells: HEK293, stably transfected clonal lines, plasmid pBK-CMV
Experiment: Calcium mobilization assay, determination of antagonist activity (Example 6)
Assay type: cell-based
Conditions: concentration giving 50% decrease in the fluorescence response of cells expressing human capsaicin receptor exposed to capsaicin
Protocol: A cDNA encoding full length human capsaicin receptor (SEQ ID NO:1, 2 or 3 of U.S. Pat. No. 6,482,611) was subcloned in the plasmid pBK-CMV (Stratagene, La Jolla, Calif.) for recombinant expression in mammalian cells.
Human embryonic kidney (HEK293) cells were transfected with the pBK-CMV expression construct encoding the full length human capsaicin receptor using standard methods. The transfected cells were selected for two weeks in media containing G418 (400 μg/ml) to obtain a pool of stably transfected cells. Independent clones were isolated from this pool by limiting dilution to obtain clonal stable cell lines for use in subsequent experiments.
Cells transfected with expression plasmids (as described in Example 4) and thereby expressing human capsaicin receptor are seeded and grown to 70-90% confluency in FALCON black-walled, clear-bottomed 96-well plates (#3904, BECTON-DICKINSON, Franklin Lakes, N.J.). The culture medium is emptied from the 96 well plates and FLUO-3 AM calcium sensitive dye (Molecular Probes, Eugene, Oreg.) is added to each well (dye solution: 1 mg FLUO-3 AM, 440 μL DMSO and 440 μl 20% pluronic acid in DMSO, diluted 1:250 in Krebs-Ringer HEPES (KRH) buffer (25 mM HEPES, 5 mM KCl, 0.96 mM NaH2PO4, 1 mM MgSO4, 2 mM CaCl2, 5 mM glucose, 1 mM probenecid, pH 7.4), 50 μl diluted solution per well). Plates are covered with aluminum foil and incubated at 37° C. for 1-2 hours in an environment containing 5% CO2. After the incubation, the dye is emptied from the plates, and the cells are washed once with KRH buffer, and resuspended in KRH buffer.
To measure the ability of a test compound to agonize or antagonize a calcium mobilization response in cells expressing capsaicin receptors to capsaicin or other vanilloid agonist, the EC50 of the agonist capsaicin is first determined. An additional 20 μl of KRH buffer and 1 μl DMSO is added to each well of cells, prepared as described above. 100 μl capsaicin in KRH buffer is automatically transferred by the FLIPR instrument to each well. Capsaicin-induced calcium mobilization is monitored using either FLUOROSKAN ASCENT (Labsystems; Franklin, Mass.) or FLIPR (fluorometric imaging plate reader system; Molecular Devices, Sunnyvale, Calif.) instruments. Data obtained between 30 and 60 seconds after agonist application are used to generate an 8-point concentration response curve, with final capsaicin concentrations of 1 nM to 3 μM. […] software (Synergy Software, Reading, Pa.) is used to fit the data to the equation: y=a*(1/(1+(b/x)^c)) to determine the 50% excitatory concentration (EC50) for the response. In this equation, y is the maximum fluorescence signal, x is the concentration of the agonist or antagonist (in this case, capsaicin), a is the Emax, b corresponds to the EC50 value and c is the Hill coefficient. Determination Agonist Activity
Test compounds are dissolved in DMSO, diluted in 20 μl KRH buffer so that the final concentration of test compounds in the assay well is between 1 μM and 5 μM, and added to cells prepared as described above. The 96 well plates containing prepared cells and test compounds are incubated in the dark, at room temperature for 0.5 to 6 hours. It is important that the incubation not continue beyond 6 hours. Just prior to determining the fluorescence response, 100 μl capsaicin in KRH buffer at twice the EC50 concentration determined as described above is automatically added by the FLIPR instrument to each well of the 96 well plate for a final sample volume of 200 μl and a final capsaicin concentration equal to the EC50. The final concentration of test compounds in the assay wells is between 1 μM and 5 μM.

T1 sequence (Q8NER1 whole entry): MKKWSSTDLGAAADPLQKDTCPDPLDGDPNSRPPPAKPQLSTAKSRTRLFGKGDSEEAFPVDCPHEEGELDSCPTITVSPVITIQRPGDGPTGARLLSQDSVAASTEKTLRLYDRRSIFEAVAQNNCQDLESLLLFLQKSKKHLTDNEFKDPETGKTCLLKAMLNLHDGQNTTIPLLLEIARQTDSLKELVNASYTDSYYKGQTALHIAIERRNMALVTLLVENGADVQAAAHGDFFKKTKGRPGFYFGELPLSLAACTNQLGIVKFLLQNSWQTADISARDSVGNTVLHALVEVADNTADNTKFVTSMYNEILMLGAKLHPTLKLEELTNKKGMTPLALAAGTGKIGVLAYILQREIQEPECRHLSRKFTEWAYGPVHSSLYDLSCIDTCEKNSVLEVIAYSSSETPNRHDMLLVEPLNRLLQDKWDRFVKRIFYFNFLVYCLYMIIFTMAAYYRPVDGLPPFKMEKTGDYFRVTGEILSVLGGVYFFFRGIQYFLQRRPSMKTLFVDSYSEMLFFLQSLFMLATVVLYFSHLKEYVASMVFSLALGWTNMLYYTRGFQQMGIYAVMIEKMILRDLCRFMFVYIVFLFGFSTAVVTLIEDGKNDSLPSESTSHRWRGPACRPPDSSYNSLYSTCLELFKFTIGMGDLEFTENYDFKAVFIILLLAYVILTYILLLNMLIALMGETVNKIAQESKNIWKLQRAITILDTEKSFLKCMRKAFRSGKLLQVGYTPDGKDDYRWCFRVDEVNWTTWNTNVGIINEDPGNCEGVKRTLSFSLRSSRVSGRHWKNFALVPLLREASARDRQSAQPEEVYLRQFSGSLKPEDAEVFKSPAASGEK

IC50, ≤ 1 µM:
COc1ccccc1COc1nc(N)nc(Nc2ccc(C(C)(C)C)cc2)n1 [Compound 32, N-(4-tert-Butyl-phenyl)-6-(2-methoxy-benzyloxy)-[1,3,5]triazine-2,4-diamine]
CC(C)(C)c1ccc(Nc2nc(Cl)nc(NCc3ccccc3Cl)n2)cc1 [Compound 33, N-(4-tert-Butyl-phenyl)-6-chloro-N′-(2-chloro-benzyl)-[1,3,5]triazine-2,4-diamine]
CC(C)(C)c1ccc(Nc2nc(Cl)nc(NCc3ccccc3F)n2)cc1 [Compound 34, N-(4-tert-Butyl-phenyl)-6-chloro-N′-(2-fluoro-benzyl)-[1,3,5]triazine-2,4-diamine]
COc1ccccc1CNc1nc(Cl)nc(Nc2ccc(C(C)(C)C)cc2)n1 [Compound 35, N-(4-tert-Butyl-phenyl)-6-chloro-N′-(2-methoxy-benzyl)-[1,3,5]triazine-2,4-diamine]
CC(C)(C)c1ccc(Nc2nc(Cl)nc(NCc3ccccc3C(F)(F)F)n2)cc1 [Compound 36, N-(4-tert-Butyl-phenyl)-6-chloro-N′-(2-trifluoromethyl-benzyl)-[1,3,5]triazine-2,4-diamine]
CC(C)(C)c1ccc(Nc2nc(N)nc(NCc3ccccc3Cl)n2)cc1 [Compound 37, N-(4-tert-Butyl-phenyl)-N′-(2-chloro-benzyl)-[1,3,5]triazine-2,4,6-triamine]
CCOc1nc(NCc2ccccc2Cl)nc(Nc2ccc(C(C)(C)C)cc2)n1 [Compound 38, N-(4-tert-Butyl-phenyl)-N′-(2-chloro-benzyl)-6-ethoxy-[1,3,5]triazine-2,4-diamine]
COc1nc(NCc2ccccc2Cl)nc(Nc2ccc(C(C)(C)C)cc2)n1 [Compound 39, N-(4-tert-Butyl-phenyl)-N′-(2-chloro-benzyl)-6-methoxy-[1,3,5]triazine-2,4-diamine]
Cc1nc(NCc2ccccc2Cl)nc(Nc2ccc(C(C)(C)C)cc2)n1 [Compound 40, N-(4-tert-Butyl-phenyl)-N′-(2-chloro-benzyl)-6-methyl-[1,3,5]triazine-2,4-diamine]
CNc1nc(NCc2ccccc2Cl)nc(Nc2ccc(C(C)(C)C)cc2)n1 [Compound 41, N-(4-tert-Butyl-phenyl)-N′-(2-chloro-benzyl)-N″-methyl-[1,3,5]triazine-2,4,6-triamine]
CC(C)(C)c1ccc(Nc2cc(NCc3ccccc3Cl)ncn2)cc1 [Compound 42, N-(4-tert-Butyl-phenyl)-N′-(2-chloro-benzyl)-pyrimidine-4,6-diamine]
CC(C)(C)c1ccc(Nc2nc(N)nc(NCc3ccccc3F)n2)cc1 [Compound 43, N-(4-tert-Butyl-phenyl)-N′-(2-fluoro-benzyl)-[1,3,5]triazine-2,4,6-triamine]
CC(C)(C)c1ccc(Nc2cc(NCc3ccccc3F)ncn2)cc1 [Compound 44, N-(4-tert-Butyl-phenyl)-N′-(2-fluoro-benzyl)-pyrimidine-4,6-diamine]
COc1ccccc1CNc1ncnc(Nc2ccc(C(C)(C)C)cc2)n1 [Compound 45, N-(4-tert-Butyl-phenyl)-N′-(2-methoxy-benzyl)-[1,3,5]triazine-2,4-diamine]
COc1ccccc1CNc1nc(N)nc(Nc2ccc(C(C)(C)C)cc2)n1 [Compound 46, N-(4-tert-Butyl-phenyl)-N′-(2-methoxy-benzyl)-[1,3,5]triazine-2,4,6-triamine]
COc1ccccc1CNc1cc(Nc2ccc(C(C)(C)C)cc2)ncn1 [Compound 47, N-(4-tert-Butyl-phenyl)-N′-(2-methoxy-benzyl)-pyrimidine-4,6-diamine]
CC(C)(C)c1ccc(Nc2cc(NCc3ccccc3C(F)(F)F)ncn2)cc1 [Compound 49, N-(4-tert-Butyl-phenyl)-N′-(2-trifluoromethyl-benzyl)-pyrimidine-4,6-diamine]
CC(C)(C)c1ccc(Nc2cc(NCc3cccc(F)c3)ncn2)cc1 [Compound 50, N-(4-tert-Butyl-phenyl)-N′-(3-fluoro-benzyl)-pyrimidine-4,6-diamine]
COc1cccc(CNc2cc(Nc3ccc(C(C)(C)C)cc3)ncn2)c1 [Compound 51, N-(4-tert-Butyl-phenyl)-N′-(3-methoxy-benzyl)-pyrimidine-4,6-diamine]
CC(C)(C)c1ccc(Nc2cc(NCc3ccc(Cl)cc3)ncn2)cc1 [Compound 52, N-(4-tert-Butyl-phenyl)-N′-(4-chloro-benzyl)-pyrimidine-4,6-diamine]
COc1ccc(CNc2cc(Nc3ccc(C(C)(C)C)cc3)ncn2)cc1 [Compound 53, N-(4-tert-Butyl-phenyl)-N′-(4-methoxy-benzyl)-pyrimidine-4,6-diamine]
CC(C)(C)c1ccc(Nc2nc(NCc3ccccc3Cl)nc(NCc3ccccc3Cl)n2)cc1 [Compound 54, N-(4-tert-Butyl-phenyl)-N′,N″-bis-(2-chloro-benzyl)-[1,3,5]triazine-2,4,6-triamine]
COc1ccccc1CNc1nc(NCc2ccccc2OC)nc(Nc2ccc(C(C)(C)C)cc2)n1 [Compound 55, N-(4-tert-Butyl-phenyl)-N′,N″-bis-(2-methoxy-benzyl)-[1,3,5]triazine-2,4,6-triamine]
CC(C)(C)c1ccc(Nc2cc(NCc3ccccn3)ncn2)cc1 [Compound 56, N-(4-tert-Butyl-phenyl)-N′-pyridin-2-ylmethyl-pyrimidine-4,6-diamine]
CC(C)(C)c1ccc(Nc2cc(NCc3cccnc3)ncn2)cc1 [Compound 57, N-(4-tert-Butyl-phenyl)-N′-pyridin-3-ylmethyl-pyrimidine-4,6-diamine]
CC(C)(C)c1ccc(Nc2cc(NCc3ccncc3)ncn2)cc1 [Compound 58, N-(4-tert-Butyl-phenyl)-N′-pyridin-4-ylmethyl-pyrimidine-4,6-diamine]
CCN(CC)c1nc(Nc2ccc(C(F)(F)F)cc2)nc(OCc2ccccc2C(F)(F)F)n1 [Compound 59, N,N-Diethyl-6-(2-trifluoromethyl-benzyloxy)-N′-(4-trifluoromethyl-phenyl)-[1,3,5]triazine-2,4-diamine]
CC(C)(C)c1ccc(Nc2cc(OCc3ccccc3C(F)(F)F)nc(N)n2)cc1 [Compound 60, N4-(4-tert-Butyl-phenyl)-6-(2-trilfuoromethyl-benzyloxy)-pyrimidine-2,4-diamine]
CC(C)(C)c1ccc(Nc2cc(NCc3ccccc3)ncn2)cc1 [Compound 61, N-Benzyl-N′-(4-tert-butyl-phenyl)-pyrimidine-4,6-diamine]
CCCCNc1nc(Nc2ccc(C(F)(F)F)cc2)nc(OCc2ccccc2C(F)(F)F)n1 [Compound 62, N-Butyl-6-(2-trifluoromethyl-benzyloxy)-N′-(4-trifluoromethyl-phenyl)-[1,3,5]triazine-2,4-diamine]
FC(F)(F)c1ccc(Nc2nc(NC3CCC3)nc(OCc3ccccc3C(F)(F)F)n2)cc1 [Compound 63, N-Cyclobutyl-6-(2-trifluoromethyl-benzyloxy)-N′-(4-trifluoromethyl-phenyl)-[1,3,5]triazine-2,4-diamine]
FC(F)(F)c1ccc(Nc2nc(NC3CCCCC3)nc(OCc3ccccc3C(F)(F)F)n2)cc1 [Compound 64, N-Cyclohexyl-6-(2-trifluoromethyl-benzyloxy)-N′-(4-trifluoromethyl-phenyl)-[1,3,5]triazine-2,4-diamine]
